Read-outs that look alike come from different tables or passages of the source.
Molecular target: T1, FAAH (Rattus norvegicus, UniProt P97612)
T1 construct: Preparation of Rat Brain Membranes Preparations (FAAH Enzyme Solution); from tissue; host or cells: rat cerebrum (brain membrane preparation)
T1 sequence (P97612 1-579): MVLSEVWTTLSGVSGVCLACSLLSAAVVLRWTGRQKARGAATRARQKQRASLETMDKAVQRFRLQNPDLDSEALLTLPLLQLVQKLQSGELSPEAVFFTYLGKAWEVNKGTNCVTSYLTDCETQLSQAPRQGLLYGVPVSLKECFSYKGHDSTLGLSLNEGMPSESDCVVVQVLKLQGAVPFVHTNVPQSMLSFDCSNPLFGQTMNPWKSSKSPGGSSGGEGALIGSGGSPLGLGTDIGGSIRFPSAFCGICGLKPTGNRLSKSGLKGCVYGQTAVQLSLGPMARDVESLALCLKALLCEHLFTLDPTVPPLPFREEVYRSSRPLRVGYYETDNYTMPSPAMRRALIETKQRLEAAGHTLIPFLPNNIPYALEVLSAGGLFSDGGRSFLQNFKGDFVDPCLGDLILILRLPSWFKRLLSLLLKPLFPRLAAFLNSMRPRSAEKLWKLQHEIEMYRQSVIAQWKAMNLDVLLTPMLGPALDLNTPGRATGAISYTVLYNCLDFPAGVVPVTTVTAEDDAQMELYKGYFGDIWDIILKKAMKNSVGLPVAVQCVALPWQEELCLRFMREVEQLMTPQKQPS
Assay: Determination of FAAH inhibitory activity in rat (rat brain membrane preparations, [3H]-anandamide hydrolysis)
Format: biochemical
Conditions: for IC50: read-out: FAAH Inhibition IC50
How it was run: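 Rat cerebrum membranes (100 μg/mL protein) preincubated 10 min at 37 °C with compound (1% DMSO) in pH 7.6 Tris buffer with 1.5% BSA. Substrate 2 nM [3H]-anandamide plus 2 μM anandamide added for 10 min at 37 °C. [3H]-ethanolamine in the aqueous phase after chloroform/methanol extraction was scintillation counted; IC50 over 0.1 nM–1 μM.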

[1] = rat brain membrane preparations, 100 nM test substance, read-out: FAAH Inhibition, Inhibition Rate at 100 nM
[2] = rat brain membrane preparations, test substance 0.1 nM to 1 μM
[3] = at 100 nM, rat brain membrane preparations, read-out: FAAH Inhibition Inhibition Rate at 100 nM
[4] = rat brain membrane preparations

Cn1c(=O)n(C(=O)N2CCCC2)c2cnc(-c3ccnc(F)c3)nc21 [Example 215, 2-(2-Fluoropyridin-4-yl)-9-methyl-7-(pyrrolidin-1-ylcarbonyl)-7,9-dihydro-8H-purine-8-one]
inhibition at 0.1 µM [1]: 98% | IC50 [2]: 10 nM

COc1ccc(F)c(-c2ncc3c(n2)n(C)c(=O)n3C(=O)N2CCCC2)c1 [Example 200, 2-(2-Fluoro-5-methoxyphenyl)-9-methyl-7-(pyrrolidin-1-ylcarbonyl)-7,9-dihydro-8H-purine-8-one]
inhibition at 0.1 µM [1]: 97% | IC50 [2]: 30 nM

CCOc1ccc(N2CCN(C(=O)n3c(=O)n(C)c4nc(-c5ccncc5)ncc43)CC2)cc1 [Example 149, 7-{[4-(4-Ethoxyphenyl)piperazin-1-yl]carbonyl}-9-methyl-2-(pyridin-4-yl)-7,9-dihydro-8H-purine-8-one]
inhibition at 0.1 µM [1]: 102% | IC50 [2]: < 1 nM

Cc1ccc(/C=C/c2ncc3c(n2)n(C)c(=O)n3C(=O)N2CCCC2)cc1 [Example 9, 9-Methyl-2-[(E)-2-(4-methylphenyl)ethenyl]-7-(pyrrolidin-1-ylcarbonyl)-7,9-dihydro-8H-purine-8-one]
inhibition at 0.1 µM [1]: 92% | IC50 [2]: 47 nM

CCOc1cccc(-c2ncc3c(n2)n(C(=O)N2CCCC2)c(=O)n3C)c1 [Example 232, 2-(3-ethoxyphenyl)-7-methyl-9-(pyrrolidin-1-ylcarbonyl)-7,9-dihydro-8H-purine-8-one]
inhibition at 0.1 µM [1]: 101% | IC50 [2]: 20 nM

Cn1c(=O)n(C(=O)N2CCCC2)c2nc(/C=C/c3ccccc3)ncc21 [Example 241, 7-Methyl-2-[(E)-2-phenylethenyl]-9-(pyrrolidin-1-ylcarbonyl)-7,9-dihydro-8H-purine-8-one]
inhibition at 0.1 µM [1]: 94% | IC50 [2]: 43 nM

CCOc1ccc(N2CCN(C(=O)n3c(=O)n(C)c4nc(-c5cccc(OC)c5)ncc43)CC2)cc1 [Example 141, 7-{[4-(4-Ethoxyphenyl)piperazin-1-yl]carbonyl}-2-(3-methoxyphenyl)-9-methyl-7,9-dihydro-8H-purine-8-one]
inhibition at 0.1 µM [1]: 100% | IC50 [2]: 4 nM

CCOc1ccc(N2CCN(C(=O)n3c(=O)n(C)c4nc(-c5ccccc5)ncc43)CC2)cc1 [Example 131, 7-{[4-(4-Ethoxyphenyl)piperazin-1-yl]carbonyl}-9-methyl-2-phenyl-7,9-dihydro-8H-purine-8-one]
inhibition at 0.1 µM [1]: 99% | IC50 [2]: 4 nM

CC(C)n1c(=O)n(C(=O)N2CCCC2)c2cnc(-c3ccccc3)nc21 [Example 305]
inhibition at 0.1 µM [1]: 99% | IC50 [2]: 12 nM

Cn1c(=O)n(C(=O)N2CCN(c3ccc(Cl)cc3)CC2)c2cnc(-c3ccccc3)nc21 [Example 126, 7-{[4-(4-Chlorophenyl)piperazin-1-yl]carbonyl}-9-methyl-2-phenyl-7,9-dihydro-8H-purine-8-one]
inhibition at 0.1 µM [1]: 99% | IC50 [2]: 7 nM

Cn1c(=O)n(C(=O)N2CCCC2)c2cnc(Cc3ccc(F)cc3)nc21 [Example 256, 2-(4-Fluorobenzyl)-9-methyl-7-(pyrrolidin-1-ylcarbonyl)-7,9-dihydro-8H-purine-8-one]
inhibition at 0.1 µM [1]: 99% | IC50 [2]: 7 nM

CCN(C)C(=O)n1c(=O)n(C)c2cnc(-c3cccc(C(F)F)c3)nc21 [compound 344]
inhibition at 0.1 µM [1]: 93% | IC50 [2]: 13 nM

COc1cccc(-c2ncc3c(n2)n(C)c(=O)n3C(=O)N2CCC(CCc3ccc(F)cc3)CC2)c1 [Example 96, 7-({4-[2-(4-Fluorophenyl)ethyl]piperidin-1-yl}carbonyl)-2-(3-methoxyphenyl)-9-methyl-7,9-dihydro-8H-purine 8-one]
inhibition at 0.1 µM [1]: 100% | IC50 [2]: 6 nM

COc1cccc(-c2ncc3c(n2)n(C)c(=O)n3C(=O)N2CCN(CCC3CCCCC3)CC2)c1 [Example 100, 7-{[4-(2-Cyclohexylethyl)piperazin-1-yl]carbonyl}-2-(3-methoxyphenyl)-9-methyl-7,9-dihydro-8H-purine-8-one]
inhibition at 0.1 µM [1]: 100% | IC50 [2]: 9 nM

COc1cccc(-c2ncc3c(n2)n(C)c(=O)n3C(=O)N2CCN(Cc3ccc(F)cc3)CC2)c1 [Example 84, 7-{[4-(4-Fluorobenzyl)piperazin-1-yl]carbonyl}-2-(3-methoxyphenyl)-9-methyl-7,9-dihydro-8H-purine-8-one]
IC50 [2]: 13 nM | inhibition at 0.1 µM (read-out: FAAH Inhibition, Inhibition Rate at 100 nM): 98%

CN(C)C(=O)n1c(=O)n(C)c2cnc(CCc3ccc(F)c(F)c3)nc21 [compound 496]
inhibition at 0.1 µM [1]: 86% | IC50 [2]: 15 nM

COCc1ncc2c(n1)n(C1CC1)c(=O)n2C(=O)N1CC(c2cccc(F)c2)C1 [compound 665]
inhibition at 0.1 µM [3]: 99% | IC50 [4]: 7 nM

COc1ccc(Cc2ncc3c(n2)n(C)c(=O)n3C(=O)N2CCCC2)cc1 [Example 262, 2-(4-Methoxybenzyl)-9-methyl-7-(pyrrolidin-1-ylcarbonyl)-7,9-dihydro-8H-purine-8-one]
inhibition at 0.1 µM [1]: 99% | IC50 [2]: 24 nM

COCc1ncc2c(n1)n(C)c(=O)n2C(=O)N1CC[C@H](Oc2cccc(C)c2)C1 [Example 485, 2-(Methoxymethyl)-9-methyl-7-{[(3S)-3-(3-methylphenoxy)pyrrolidin-1-yl]carbonyl}-7,9-dihydro-8H-purine-8-one]
inhibition at 0.1 µM [1]: 112% | IC50 [2]: 3 nM

COc1cc(Cc2ncc3c(n2)n(C)c(=O)n3C(=O)N2CCCC2)cc(OC)c1 [compound 271]
inhibition at 0.1 µM [1]: 39% | IC50 [2]: > 100 nM

Cn1c(=O)n(C(=O)N2CCC2)c2nc(COc3ccccc3F)ncc21 [Example 425]
inhibition at 0.1 µM [1]: 79% | IC50 [2]: 12 nM

CCc1ccc(CCc2ncc3c(n2)n(C(=O)N2CCC2)c(=O)n3C)cc1 [compound 561]
inhibition at 0.1 µM [1]: 99% | IC50 [2]: 10 nM

CCOCc1ncc2c(n1)n(C)c(=O)n2C(=O)N1CC(c2ccccc2F)C1 [Example 465, 2-(Ethoxymethyl)-7-{[3-(2-fluorophenyl)azetidin-1-yl]carbonyl}-9-methyl-7,9-dihydro-8H-purine-8-one]
inhibition at 0.1 µM [1]: 96% | IC50 [2]: 10 nM

COc1cccc(-c2ncc3c(n2)n(C)c(=O)n3C(=O)N(C)CCc2ccc(C(F)(F)F)cc2)c1 [Example 92, 2-(3-Methoxyphenyl)-N,9-dimethyl-8-oxo-N-{2-[4-(trifluoromethyl)phenyl]ethyl}-8,9-dihydro-7H-purine-7-carboxamide]
inhibition at 0.1 µM [1]: 103% | IC50 [2]: 4 nM

Cn1c(=O)n(C(=O)N2CCCC2)c2cnc(-c3ccc(F)nc3)nc21 [Example 207, 2-(6-Fluoropyridine-3-yl)-9-methyl-7-(pyrrolidin-1-ylcarbonyl)-7,9-dihydro-8H-purine-8-one]
inhibition at 0.1 µM [1]: 99% | IC50 [2]: 6 nM

COc1cccc(-c2ncc3c(n2)n(C)c(=O)n3C(=O)N(C)CCc2ccc(Cl)cc2Cl)c1 [Example 110, N-[2-(2,4-Dichlorophenyl)ethyl]-2-(3-methoxyphenyl)-N,9-dimethyl-8-oxo-8,9-dihydro-7H-purine-7-carboxamide]
inhibition at 0.1 µM [1]: 103% | IC50 [2]: 3 nM

CC(C)c1ncc2c(n1)n(C)c(=O)n2C(=O)N1CCCC1 [Example 275]
inhibition at 0.1 µM [1]: 73% | IC50 [2]: 64 nM

Cn1c(=O)n(C(=O)N2CCCC2)c2cnc(-c3ccc(F)cc3F)nc21 [compound 188]
inhibition at 0.1 µM [1]: 99% | IC50 [2]: 9 nM

Cn1c(=O)n(C(=O)N2CCC2)c2nc(-c3ccc(F)cc3)ncc21 [compound 354]
inhibition at 0.1 µM [1]: 79% | IC50 [2]: 52 nM

CCN(C)C(=O)n1c(=O)n(C)c2nc(Cc3ccc(OC)cc3)ncc21 [Example 280, N-Ethyl-2-(4-methoxybenzyl)-N,9-dimethyl-8-oxo-8,9-dihydro-7H-purine-7-carboxamide]
inhibition at 0.1 µM [1]: 105% | IC50 [2]: 11 nM

CN(C)C(=O)n1c(=O)n(C)c2cnc(Cc3ccccc3Cl)nc21 [compound 652]
inhibition at 0.1 µM [3]: 60% | IC50 [4]: 31 nM

Cc1cncc(-c2ncc3c(n2)n(C)c(=O)n3C(=O)N2CCCC2)c1 [compound 212]
inhibition at 0.1 µM [1]: 88% | IC50 [2]: 54 nM

CCCn1c(=O)n(C(=O)N2CC(c3cccc(C(F)(F)F)c3)C2)c2cnc(COC)nc21 [Example 662, 2-(Methoxymethyl)-9-propyl-7-({3-[3-(trifluoromethyl)phenyl]azetidin-1-yl}carbonyl)-7,9-dihydro-8H-purine-8-one]
inhibition at 0.1 µM [3]: 97% | IC50 [4]: 8 nM

CN(CCc1ccc(Cl)cc1)C(=O)n1c(=O)n(C)c2nc(Cc3ccccc3)ncc21 [Example 158, 2-Benzyl-N-[2-(4-chlorophenyl)ethyl]-N,9-dimethyl-8-oxo-8,9-dihydro-7H-purine-7-carboxamide]
inhibition at 0.1 µM [1]: 102% | IC50 [2]: < 1 nM

COc1cccc(-c2ncc3c(n2)n(C)c(=O)n3C(=O)N(C)Cc2ccccc2)c1 [Example 88, N-Benzyl-2-(3-methoxyphenyl)-N,9-dimethyl-8-oxo-8,9-dihydro-7H-purine-7-carboxamide]
inhibition at 0.1 µM [1]: 93% | IC50 [2]: 43 nM

Reference: US8735406B2, “8-oxodihydropurine derivative” (Dainippon Sumitomo Pharma Co., Ltd., priority 2009, dated 2014)
